# Reference: ChEMBL document CHEMBL6182937, “Design, Synthesis, and Anti-ischemic Stroke Activity Evaluation of Novel GSNOR Inhibitors” (J Med Chem, 2025)
# Activity calls are given as the source filed them. The calls are words filed in the database; no cut-off is given here.
# Key:
# Rattus norvegicus [1] = assay: Neuroprotective activity against tMCAO- induced brain injury in Sprague-Dawley rat model assessed as reduction in infarct volume at 5 mg/kg, iv measured up to 24 hrs by TTC staining based analysis (reference value: 36.35 +/- 4.05%); type: functional; parameters: scale not given: the % may be the effect or the level left
# SH-SY5Y [2] = assay: Neuroprotective activity against OGD/R-induced human […] cell injury model assessed as increase in cell viability at 10 uM measured for 24 hrs by CCK-8 assay; type: functional, cell-based
# [3] = Inhibition of GSNOR (unknown origin); parameters: species or system Homo sapiens
# [4] = Inhibition of GSNOR (unknown origin) in presence of NADH incubated for 10 mins by microplate reader analysis; parameters: species or system Homo sapiens
# Homo sapiens [5] = organism: Homo sapiens; assay: Inhibition of GSNOR (unknown origin) at 1 uM in presence of NADH incubated for 10 mins by microplate reader analysis relative to control
# [6] = Tmax in Sprague-Dawley rat at 10 mg/kg, iv by LC-MS/MS analysis; type: ADME, organism-based; details: in vivo
# [7] = Stability in rat plasma assessed as half life at 1 uM incubated up to 120 mins by LC-MS/MS analysis; type: ADME, cell-free
# Rattus norvegicus [8] = assay: Neuroprotective activity against tMCAO- induced brain injury in Sprague-Dawley rat model assessed as reduction in neurological score at 5 mg/kg, iv measured up to 24 hrs Longa scale analysis; type: functional, organism-based
# [9] = Half life in male C57BL/6 mouse at 10 mg/kg, po by LC-MS/MS analysis; type: ADME, organism-based; details: in vivo
# Rattus norvegicus [10] = assay: Neuroprotective activity against tMCAO- induced brain injury in Sprague-Dawley rat model assessed as reduction in neurological score at 10 mg/kg, iv measured up to 24 hrs Longa scale analysis; type: functional, organism-based
# [11] = MRT (0 to t) in Sprague-Dawley rat at 10 mg/kg, iv by LC-MS/MS analysis; type: ADME, organism-based; details: in vivo
# Rattus norvegicus [12] = assay: Neuroprotective activity against tMCAO- induced brain injury in Sprague-Dawley rat model assessed as […] at 5 mg/kg, iv measured up to 24 hrs; type: functional, organism-based
# [13] = Permeability of compound across apical to basal side in human Caco-2 cells at 10 uM incubated for 120 mins by LC-MS/MS analysis; type: ADME, cell-based; details: caco-2, 2 h
# [14] = Metabolic stability in rat liver microsomes assessed as intrinsic clearance preincubated for 5 mins followed by NADPH addition and measured up to 60 mins by LC-MS/MS analysis; type: ADME, Microsome; details: time < 65 min, read-out: CLH
# [15] = Oral bioavailability in male C57BL/6 mouse at 10 mg/kg by LC-MS/MS analysis; type: ADME, organism-based; details: in vivo
# Rattus norvegicus [16] = assay: Neuroprotective activity against tMCAO- induced brain injury in Sprague-Dawley rat model assessed as reduction in infarct volume at 10 mg/kg, iv measured up to 24 hrs by TTC staining based analysis (reference value: 36.35 +/- 4.05%); type: functional; parameters: scale not given: the % may be the effect or the level left
# [17] = Clearance in Sprague-Dawley rat at 10 mg/kg, iv by LC-MS/MS analysis; type: ADME, organism-based; details: in vivo
# Rattus norvegicus [18] = assay: Neuroprotective activity against tMCAO- induced brain injury in Sprague-Dawley rat model assessed as upregulation of clstn1 level in brain at 5 mg/kg, iv measured after 24 hrs by LC-MS/MS analysis; type: functional, organism-based
# [19] = Cmax in Sprague-Dawley rat at 10 mg/kg, iv by LC-MS/MS analysis; type: ADME, organism-based; details: in vivo
# [20] = Metabolic stability in rat liver microsomes assessed as half life preincubated for 5 mins followed by NADPH addition and measured up to 60 mins by LC-MS/MS analysis; type: ADME, Microsome; details: time < 65 min
# [21] = Half life in Sprague-Dawley rat at 10 mg/kg, iv by LC-MS/MS analysis; type: ADME, organism-based; details: in vivo
# SH-SY5Y [22] = assay: Cytotoxicity against human SH-SY5Y cells up to 40 uM incubated for 24 hrs by CCK-8 assay; type: functional, cell-based
# [23] = MRT (0 to t) in male C57BL/6 mouse at 2 mg/kg, iv by LC-MS/MS analysis; type: ADME, organism-based; details: in vivo
# SH-SY5Y [24] = assay: Neuroprotective activity against OGD/R-induced human […] cell injury model assessed as cell survival measured for 24 hrs by CCK-8 assay; type: functional, cell-based; details: dose 1-10 µM
# [25] = MRT (0 to t) in male C57BL/6 mouse at 10 mg/kg, po by LC-MS/MS analysis; type: ADME, organism-based; details: in vivo
# [26] = AUC (0 to t) in Sprague-Dawley rat at 10 mg/kg, iv by LC-MS/MS analysis; type: ADME, organism-based; details: in vivo
# [27] = Half life in male C57BL/6 mouse at 2 mg/kg, iv by LC-MS/MS analysis; type: ADME, organism-based; details: in vivo
# CYP2C9 = CYP2C9 (Homo sapiens, UniProt P11712); assay: Inhibition of human CYP2C9 in human liver microsome at 10 uM relative to control; type: ADME; details: human liver microsomes
# CYP1A2 = biological target: T1, CYP1A2 (Homo sapiens, UniProt P05177); assay: Inhibition of human CYP1A2 in human liver microsome at 10 uM relative to control; type: ADME; details: human liver microsomes
# T1 sequence (P05177 whole entry): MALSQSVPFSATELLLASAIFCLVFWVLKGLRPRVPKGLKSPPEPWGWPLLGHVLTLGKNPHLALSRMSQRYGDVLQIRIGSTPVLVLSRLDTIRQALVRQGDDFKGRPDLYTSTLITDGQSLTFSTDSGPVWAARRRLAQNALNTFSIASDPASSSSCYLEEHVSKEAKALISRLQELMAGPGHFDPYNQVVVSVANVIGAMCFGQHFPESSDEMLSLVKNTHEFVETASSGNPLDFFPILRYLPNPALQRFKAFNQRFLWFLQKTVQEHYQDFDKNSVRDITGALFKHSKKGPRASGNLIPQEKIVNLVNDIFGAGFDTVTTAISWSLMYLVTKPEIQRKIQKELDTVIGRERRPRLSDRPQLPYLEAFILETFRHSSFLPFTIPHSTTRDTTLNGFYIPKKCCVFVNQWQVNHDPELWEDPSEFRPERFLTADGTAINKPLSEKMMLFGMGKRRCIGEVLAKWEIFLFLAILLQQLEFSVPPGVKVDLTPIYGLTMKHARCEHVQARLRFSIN
# CYP2D6 = CYP2D6 (Homo sapiens, UniProt P10635); assay: Inhibition of human CYP2D6 in human liver microsome at 10 uM relative to control; type: ADME; details: human liver microsomes
# CYP2C19 = CYP2C19 (Homo sapiens, UniProt P33261); assay: Inhibition of human CYP2C19 in human liver microsome at 10 uM relative to control; type: ADME; details: human liver microsomes
# CYP3A4 = CYP3A4 (Homo sapiens, UniProt P08684); assay: Inhibition of human CYP3A4 in human liver microsome at 10 uM relative to control; type: ADME; details: human liver microsomes
# Homo sapiens [28] = organism: Homo sapiens; assay: Inhibition of GSNOR (unknown origin) at 10 uM relative to control
# Chain of CYP2C9 (P11712 whole entry): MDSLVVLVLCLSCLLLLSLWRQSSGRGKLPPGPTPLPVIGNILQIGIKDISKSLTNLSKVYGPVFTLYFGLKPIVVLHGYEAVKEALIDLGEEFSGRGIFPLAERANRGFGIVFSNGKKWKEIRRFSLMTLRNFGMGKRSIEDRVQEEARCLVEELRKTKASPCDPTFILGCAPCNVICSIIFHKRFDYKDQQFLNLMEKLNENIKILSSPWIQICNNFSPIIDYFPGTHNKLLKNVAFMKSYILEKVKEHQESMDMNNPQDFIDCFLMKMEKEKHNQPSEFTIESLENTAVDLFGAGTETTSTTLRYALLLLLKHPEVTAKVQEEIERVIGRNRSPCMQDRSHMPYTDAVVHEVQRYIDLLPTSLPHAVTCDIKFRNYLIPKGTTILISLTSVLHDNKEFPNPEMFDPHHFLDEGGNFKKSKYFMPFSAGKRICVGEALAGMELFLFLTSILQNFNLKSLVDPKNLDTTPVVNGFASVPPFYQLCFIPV
# Chain of CYP3A4 (P08684 whole entry): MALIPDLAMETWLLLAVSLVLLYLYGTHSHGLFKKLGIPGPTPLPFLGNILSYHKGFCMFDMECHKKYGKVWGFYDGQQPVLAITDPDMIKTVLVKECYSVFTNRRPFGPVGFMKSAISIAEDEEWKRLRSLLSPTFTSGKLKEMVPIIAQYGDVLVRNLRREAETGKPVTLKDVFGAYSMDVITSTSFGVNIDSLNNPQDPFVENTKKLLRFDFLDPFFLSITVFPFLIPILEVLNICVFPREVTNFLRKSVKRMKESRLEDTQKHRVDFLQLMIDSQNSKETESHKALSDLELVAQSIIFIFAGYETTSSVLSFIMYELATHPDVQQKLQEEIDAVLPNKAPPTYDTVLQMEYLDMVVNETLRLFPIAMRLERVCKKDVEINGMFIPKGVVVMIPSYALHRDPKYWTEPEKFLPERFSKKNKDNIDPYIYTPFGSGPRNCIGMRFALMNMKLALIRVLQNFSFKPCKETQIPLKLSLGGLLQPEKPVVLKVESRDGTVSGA
# Chain of CYP2D6 (P10635 whole entry): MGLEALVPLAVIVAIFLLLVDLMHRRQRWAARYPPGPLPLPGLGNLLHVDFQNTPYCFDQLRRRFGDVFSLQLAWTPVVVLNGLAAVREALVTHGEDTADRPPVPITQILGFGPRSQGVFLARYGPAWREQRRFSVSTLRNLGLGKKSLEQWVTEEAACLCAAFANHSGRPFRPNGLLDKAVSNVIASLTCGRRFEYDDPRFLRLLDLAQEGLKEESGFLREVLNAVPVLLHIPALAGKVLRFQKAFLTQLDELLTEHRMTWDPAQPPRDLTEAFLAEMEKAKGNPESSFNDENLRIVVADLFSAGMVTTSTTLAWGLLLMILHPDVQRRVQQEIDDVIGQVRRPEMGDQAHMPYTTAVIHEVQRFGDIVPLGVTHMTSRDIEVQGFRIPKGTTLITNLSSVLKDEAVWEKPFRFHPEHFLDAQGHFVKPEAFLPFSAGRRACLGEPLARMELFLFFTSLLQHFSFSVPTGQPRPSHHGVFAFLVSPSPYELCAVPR
# Chain of CYP2C19 (P33261 whole entry): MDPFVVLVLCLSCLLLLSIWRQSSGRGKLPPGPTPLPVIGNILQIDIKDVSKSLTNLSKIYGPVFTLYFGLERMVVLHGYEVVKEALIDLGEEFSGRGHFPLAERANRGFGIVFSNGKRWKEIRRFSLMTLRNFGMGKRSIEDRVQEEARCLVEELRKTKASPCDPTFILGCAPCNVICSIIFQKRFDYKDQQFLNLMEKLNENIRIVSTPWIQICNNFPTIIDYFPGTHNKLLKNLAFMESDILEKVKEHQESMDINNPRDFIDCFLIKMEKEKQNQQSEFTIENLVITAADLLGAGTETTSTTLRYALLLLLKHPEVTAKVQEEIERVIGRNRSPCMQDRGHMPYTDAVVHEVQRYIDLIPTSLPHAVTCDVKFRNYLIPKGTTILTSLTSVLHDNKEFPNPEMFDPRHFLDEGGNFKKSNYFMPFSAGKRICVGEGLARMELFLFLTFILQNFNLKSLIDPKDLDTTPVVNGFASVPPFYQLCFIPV
compound,measurement,setting,value
N[C@@H](CCC(=O)N[C@@H](CSN=O)C(=O)NCC(=O)O)C(=O)O [S-NITROSOGLUTATHIONE],Activity,Rattus norvegicus [1],25.26%
same,Activity,SH-SY5Y [2],Active
O=C(O)c1ccc2cc(-c3ccc(-n4ccnc4)cc3)n(Cc3ccc(F)cc3)c2c1,IC50,[3],649 nM
N#Cc1cccc(Cn2c(-c3ccc(-n4ccnc4)cc3)cc3ccc(C(=O)O)cc32)c1,IC50,[4],102 nM
same,inhibition,Homo sapiens [5],84.4%
N#Cc1ccc(-n2c(-c3ccc(-n4ccnc4)cc3)cc3ccc(C(=O)O)cc32)cc1,inhibition,Homo sapiens [5],22.4%
NC(=O)c1ccc(-n2c(-c3ccc(-n4ccnc4)cc3)cc3ccc(C(=O)O)cc32)cc1O,IC50,[4],60.3 nM
same,inhibition,Homo sapiens [5],97%
CC(C)Oc1cc(-n2c(-c3ccc(-n4ccnc4)cc3)cc3ccc(C(=O)O)cc32)ccc1C(N)=O,IC50,[4],58.3 nM
same,inhibition,Homo sapiens [5],92.3%
Cc1cc(C(N)=O)ccc1-n1c(-c2ccc(-c3ccc(=O)[nH]c3)cc2)cc2ccc(C(=O)O)cc21,inhibition,Homo sapiens [5],5.7%
NC(=O)c1ccc(Cn2c(-c3ccc(-n4ccnc4)cc3)cc3ccc(C(=O)O)cc32)cc1,IC50,[4],42.2 nM
same,inhibition,Homo sapiens [5],22.4%
Cc1cc(C(N)=O)ccc1-n1c(-c2ccc(NS(N)(=O)=O)cc2)cc2ccc(C(=O)O)cc21,inhibition,Homo sapiens [5],14.8%
O=C(O)c1ccc2cc(-c3ccc(-n4ccnc4)cc3)n(Cc3ccc(Br)cc3)c2c1,IC50,[4],84.4 nM
same,inhibition,Homo sapiens [5],81.6%
NC(=O)c1ccc(-n2c(-c3ccc(-n4ccnc4)cc3)cc3ccc(C(=O)O)cc32)cc1Cl,IC50,[4],51.1 nM
same,inhibition,Homo sapiens [5],93.3%
Cc1cc(-n2c(-c3ccc(-n4ccnc4)cc3)cc3ccc(C(=O)O)cc32)ccc1C(N)=O,inhibition,Homo sapiens [5],72.2%
Cc1cc(C(N)=O)ccc1-n1c(-c2ccc(-c3cn(C)nc3C)cc2)cc2ccc(C(=O)O)cc21,inhibition,Homo sapiens [5],2.44%
NC(=O)c1cccc(Cn2c(-c3ccc(-n4ccnc4)cc3)cc3ccc(C(=O)O)cc32)c1,inhibition,Homo sapiens [5],3.84%
NC(=O)c1ccc(-n2c(-c3ccc(-n4ccnc4)cc3)cc3ccc(C(=O)O)cc32)cc1C(F)(F)F,inhibition,Homo sapiens [5],50.9%
CCOc1cc(-n2c(-c3ccc(-n4ccnc4)cc3)cc3ccc(C(=O)OC)cc32)ccc1C(N)=O,Activity,Rattus norvegicus [1],24.39%
same,Tmax,[6],4.8 min
same,Activity,SH-SY5Y [2],Active
same,half-life at 1 µM,[7],257 min
same,Activity,Rattus norvegicus [8],Active
same,half-life,[9],76.2 min
same,Activity,Rattus norvegicus [10],Active
same,MRT last,[11],42.6 min
same,Activity,Rattus norvegicus [12],Active
same,permeability,[13],Permeable
same,CLint scaled,[14],15.8 mL/min/kg
same,bioavailability,[15],11.2%
same,Activity,Rattus norvegicus [16],12.74%
same,clearance,[17],20.9 mL/min/kg
same,Activity,Rattus norvegicus [18],Active
same,Cmax,[19],11600 ng/mL
same,half-life,[20],158 min
same,half-life,[21],36 min
same,inhibition,Homo sapiens [5],16.4%
same,Activity,SH-SY5Y [22],Active
same,MRT last,[23],47.4 min
same,Activity,SH-SY5Y [24],Dose-dependent-effect
same,MRT last,[25],66 min
same,AUC(0-t),[26],8040 ng·h/mL
same,half-life,[27],59.4 min
NC(=O)c1ccc(-n2c(-c3ccc(-n4ccnc4)cc3)cc3ccc(C(=O)O)cc32)cc1,IC50,[4],312 nM
same,inhibition,Homo sapiens [5],81.7%
Cc1cc(C(N)=O)ccc1-n1c(-c2ccc(-n3ccnc3)cc2)cc2ccc(C(=O)O)cc21,IC50,[4],192 nM
same,inhibition,Homo sapiens [5],81.2%
NC(=O)c1ccc(-n2c(-c3ccc(-n4ccnc4)cc3)cc3ccc(C(=O)O)cc32)cc1Br,inhibition,Homo sapiens [5],76.6%
O=C(O)c1ccc2cc(-c3ccc(-n4ccnc4)cc3)n(Cc3ccc(N4CCCC4=O)cc3)c2c1,inhibition,Homo sapiens [5],85.5%
NC(=O)c1ccc(-n2c(-c3ccc(-n4ccnc4)cc3)cc3ccc(C(=O)O)cc32)cn1,inhibition,Homo sapiens [5],60.7%
CN(C)S(=O)(=O)c1ccc(Cn2c(-c3ccc(-n4ccnc4)cc3)cc3ccc(C(=O)O)cc32)cc1,inhibition,Homo sapiens [5],94.3%
Cc1cc(C(N)=O)ccc1-n1c(-c2ccc(-c3ccncc3)cc2)cc2ccc(C(=O)O)cc21,inhibition,Homo sapiens [5],12.5%
N#Cc1ccc(Cn2c(-c3ccc(-n4ccnc4)cc3)cc3ccc(C(=O)O)cc32)cc1F,inhibition,Homo sapiens [5],88.9%
Cc1cc(C(N)=O)ccc1-n1c(CCC(=O)O)ccc1-c1ccc(-n2ccnc2)cc1 [N6022],Activity,Rattus norvegicus [1],25.26%
same,Activity,SH-SY5Y [2],Active
same,Activity,Rattus norvegicus [16],25.26%
same,IC50,[4],84.7 nM
same,inhibition,Homo sapiens [5],90.3%
Cc1cc(C(N)=O)ccc1-n1c(-c2ccc(N3CCOCC3)cc2)cc2ccc(C(=O)O)cc21,inhibition,Homo sapiens [5],-0.76%
CCOc1cc(-n2c(-c3ccc(-n4ccnc4)cc3)cc3ccc(C(=O)O)cc32)ccc1C(N)=O,Tmax,[6],19.8 min
same,Activity,SH-SY5Y [2],Active
same,inhibition at 10 µM,CYP2C9,75%
same,MRT last,[11],63 min
same,inhibition at 10 µM,CYP1A2,16.6%
same,bioavailability,[15],6.64%
same,clearance,[17],48.5 mL/min/kg
same,Cmax,[19],2930 ng/mL
same,inhibition at 10 µM,CYP2D6,59.2%
same,IC50,[4],44.1 nM
same,half-life,[21],51 min
same,inhibition,Homo sapiens [5],95.1%
same,inhibition at 10 µM,CYP2C19,70.1%
same,Activity,SH-SY5Y [22],Active
same,AUC(0-t),[26],3510 ng·h/mL
same,inhibition at 10 µM,CYP3A4,81.5%
N#Cc1ccc(Cn2c(-c3ccc(-n4ccnc4)cc3)cc3ccc(C(=O)O)cc32)cc1,IC50,[4],54.6 nM
same,inhibition,Homo sapiens [5],35.1%
Cc1cc(C(N)=O)ccc1-n1c(-c2ccc(O)cc2)cc2ccc(C(=O)O)cc21,inhibition,Homo sapiens [5],33.7%
Cc1cc(C(N)=O)ccc1-n1c(-c2ccc(N3CCN(C)CC3)cc2)cc2ccc(C(=O)O)cc21,inhibition,Homo sapiens [5],-0.36%
O=C(O)c1ccc2cc(-c3ccccc3)n(Cc3ccc(F)cc3)c2c1,inhibition,Homo sapiens [28],32.4%
O=C(O)c1ccc2cc(-c3ccc(-n4ccnc4)cc3)n(Cc3ccc(Cl)cc3)c2c1,IC50,[4],171 nM
same,inhibition,Homo sapiens [5],28.1%
O=C(O)c1ccc2cc(-c3ccc(-n4ccnc4)cc3)n(Cc3ccc(SC(F)(F)F)cc3)c2c1,IC50,[4],71.1 nM
same,inhibition,Homo sapiens [5],89.7%
Cc1cc(C(N)=O)ccc1-n1c(-c2ccc(-c3cccnc3)cc2)cc2ccc(C(=O)O)cc21,inhibition,Homo sapiens [5],22.2%
Cc1cc(C(N)=O)ccc1-n1c(-c2ccc(-c3cn(C)nc3C(F)(F)F)cc2)cc2ccc(C(=O)O)cc21,inhibition,Homo sapiens [5],0.93%
